Laboratory results from patent US20250312370A1, “SYSTEMS AND METHODS FOR USE OF ADENOSINE TRIPHOSPHATE (ATP) TO RELIEVE SYMPTOMS OF COVID-19 AND RELATED INFECTIONS” (ADENYLATE THERAPEUTICS LLC, priority 2020, published 2025).

Tests used:
COVID-19 [1] = experiment: non-randomized trial of oral ATP supplementation for treatment of COVID-19 at two residential care facilities (facilities 1 and 2); assay type: in vivo, human
Description: FIG. 3 provides a summary of short-term results of a non-randomized trial of ATP supplementation for treatment of COVID-19 at two different residential care facilities. When the facilities experienced a rapid and insidious onset of COVID-19 in 2020, optional oral ATP nutritional supplementation to COVID-19-positive patients in these two facilities was offered. Patients were given free choice to either accept or reject ATP supplementation. ATP doses ranged from 400-mg capsules four times per day (1600 mg) in the younger patients at facility 1 to three 400-mg capsules three times per day (3600 mg) for the older patients in facility 2. In both facilities, ATP was taken for at least a week after confirmation of SARS-CoV-2 infection. ATP also was offered in powder form to be mixed with food or drink at 450 mg per dose.
From the initial 13 patients diagnosed with COVID-19 in facility 1, six patients with average age 75.0 years chose to start ATP while the remaining seven with average age 74.7 years chose not to take ATP. Because of the visible developing benefit conferred by ATP, all subsequent COVID-19 patients at the facility 1 chose to begin taking ATP at the time of their diagnoses. All six patients who initially chose ATP were still alive.
At facility 2, all of the patients receiving ATP started taking ATP on the same day following confirmation of viral infection. All of the facility 2 patients taking ATP were alive. Because all patients taking ATP were elderly with multiple co-morbidities (including diabetes and heart disease), it would be expected that their death rate should be worse than that of the general population of individuals over 70 years of age.

COVID-19 [2] = experiment: oral ATP supplementation of COVID-19 patients in facility 3; assay type: in vivo, human; conditions: protocol similar to facilities 1 and 2
Description: Using a protocol similar to those used in facilities 1 and 2, ATP supplementation was begun in facility 3.

[3] = prolonged infusion; chronically debilitated patients with metastatic treatment refractory disease (Stage IV cancer); cited from earlier work
[4] = test system: advanced hormone refractory prostate cancer; conditions: oral ATP added to palliative agents such as samarium-153; cited from earlier work
[5] = in vivo; cited from earlier work
[6] = high dose oral ATP, cited from earlier work

Nc1ncnc2c1ncn2[C@@H]1O[C@H](COP(=O)(O)OP(=O)(O)OP(=O)(O)O)[C@@H](O)[C@H]1O [ATP, Adenosine Triphosphate]
survival of COVID-19-positive patients accepting oral ATP (COVID-19 [1]; facilities 1 and 2, oral ATP 1600-3600 mg per day for at least a week, 2 months after the initiation of supplemental ATP): alive and recovering
survival of patients who initially chose ATP (COVID-19 [1]; facility 1, six patients, average age 75.0 years, 400-mg capsules four times per day): still alive
survival of patients taking ATP (COVID-19 [1]; facility 2, older patients, three 400-mg capsules three times per day): alive
survival of COVID-19 patients taking supplemental ATP (COVID-19 [2]): survived except for one patient
safety of administration [3]: safely administered
prostate biomarker PSA [4]: dramatically reduces
pulmonary artery hypertension [5]: reverse
cancer patient survival ([6]; advanced cancer patients): improved
athletic performance ([6]; athletes): improved
